Test results from patent publication US8674115B2, “CRTH2 modulators” (Ironwood Pharmaceuticals, Inc., priority 2009, dated 2014).

Experiments:
CRTH2 [1] = target: T1, CRTH2 (Homo sapiens, UniProt Q9Y5Y4); assay: Human whole blood CD11b antagonist assay (CD11b expression in eosinophils); type: cell-based; design: endogenous in cells; host or cells: eosinophils in human whole blood; settings: challenged with 10 nM 15R-Methyl-PGD2, read-out: CD11b Antag IC50(nM) [HuEos-HuWB-vs10nM15R]
T1 sequence (Q9Y5Y4 1-395): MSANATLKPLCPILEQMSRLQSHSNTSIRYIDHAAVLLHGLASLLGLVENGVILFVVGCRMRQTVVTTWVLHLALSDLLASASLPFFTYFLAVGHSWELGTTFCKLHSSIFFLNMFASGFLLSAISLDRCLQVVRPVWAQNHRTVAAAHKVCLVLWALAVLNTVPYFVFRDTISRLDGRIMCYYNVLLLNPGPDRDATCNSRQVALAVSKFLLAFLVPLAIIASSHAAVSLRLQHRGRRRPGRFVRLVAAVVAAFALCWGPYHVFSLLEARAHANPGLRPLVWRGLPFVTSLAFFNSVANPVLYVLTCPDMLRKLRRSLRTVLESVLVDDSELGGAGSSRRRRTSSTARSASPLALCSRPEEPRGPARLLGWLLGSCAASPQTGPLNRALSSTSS
Description: Human Whole Blood CD11B Antagonist Assay (Modified from Nicholson, et al. Pulmonary Pharmacology and Therapeutics: 20 (2007); 52-59).
The potential CRTH2 antagonist activity of certain compounds was tested in human whole blood using an assay that tests the ability of the compounds to block the CD11b expression in eosinophils by 15-R-methyl-PGD2. A CRTH2 antagonist should block CD11b expression by subsequently added 15-Methyl-PGD2. Human whole blood (200 μL) was incubated at 37° C. for 10 minutes in the presence of various concentrations of test compounds before being challenged with the agonist 15R-Methyl-PGD2 (10 nM). Reactions were terminated by the addition of ice-cold PBS+0.5% BSA+2 mMEDTA (1 mL) and centrifugation (300×g for 5 minutes at 4° C.) Cells were then incubated at 4° C. for 10 min in the presence of human IgG. Cells were then incubated for 30-45 min with a mixture of PE-Cy5-labeled mouse anti-human CD16 (10 ul; BD Biosciences) and FITC-labeled mouse anti-human CD11b (10 μL; Beckman Coulter.) After rinsing (1 mL ice-cold PBS+0.5% BSA+2 mMEDTA), red blood cells were lysed by the addition of 1 mL ice-cold H2O to the cell pellet for 30 sec-1 min immediately followed by the addition of 3.5% NaCl (300 μL.) Cells were then rinsed (2×-1 ml ice cold PBS+0.5% BSA+2 mMEDTA) and fixed in PBS containing 1% formaldehyde. The distribution of fluorescence intensities was measured by flow cytometry. Eosinophils were gated out on the basis of their granularity (high side scatter) and absence of CD-16. CD11b was then measured on this eosinophil population on the basis of fluorescence due to FITC.

CRTH2 [2] = target: T1, CRTH2; assay: DPBS CD11b antagonist assay (CD11b expression in eosinophils); type: cell-based; settings: challenged with 10 nM 15R-Methyl-PGD2, read-out: CD11b Antag IC50(nM) [HuEos-DPBS-vs10nM15R]
Description: DPBS CD11b Antagonist Assay.
The potential CRTH2 antagonist activity of certain compounds was tested using a CD11b expression assay using essentially the method described by Monneret et al. (J Pharmacol Exp Ther 304:349-55, 2003). Briefly, polymorphonuclear cells (0.5 ml; 10^6/ml cells) in PBS containing 0.9 mM CaCl2 and 0.5 mM MgCl2) were preincubated with various concentrations of test compounds at room temperature for 10 minutes before they were challenged with the agonist 15R-Methyl-PGD2 (10 nM). The incubations were terminated by the addition of ice-cold FACSFlow (BD Biosciences; Cat# 342003) and centrifugation (400 g for 5 minutes at 4° C.). The cells were then incubated for 30 minutes at 4° C. with a mixture of PE-labeled mouse anti-human VLA-4 (5 μl; BD Biosciences) and FITC-labeled mouse anti-human CD11b (10 μl; Beckman Coulter). The cells were then incubated with Optilyse C (0.25 ml; Beckman Coulter) for 15 minutes, centrifuged, and then fixed in PBS (0.4 ml; calcium and magnesium free) containing 1% formaldehyde. The distribution of fluorescence intensities among 60,000 cells was measured by flow cytometry. Eosinophils were gated out on the basis of their granularity (high side scatter) and labeling with VLA-4 (PE fluorescence). CD11b was then measured in the eosinophil region on the basis of fluorescence due to FITC. All data were corrected for the value obtained for the corresponding isotope control antibody.

Compound	IC50 (CRTH2 [1])	IC50 (CRTH2 [2])
Cc1c(Cc2ccccc2S(=O)(=O)c2ccccc2)cc(-c2ccccc2F)n1CC(=O)O [I-18, 2-(5-(2-fluorophenyl)-2-methyl-3-(2-(phenylsulfonyl)benzyl)-1H-pyrrol-1-yl)acetic acid]	> 500 nM	–
Cc1c(Cc2ccccc2S(=O)(=O)N2CCCC2)c(C#N)c(-c2ccccc2)n1CC(=O)O [I-11, 2-(3-cyano-5-methyl-2-phenyl-4-(2-(pyrrolidin-1-ylsulfonyl)benzyl)-1H-pyrrol-1-yl)acetic acid]	5 to 100 nM	–
Cc1c(Cc2ccccc2S(=O)(=O)N2CCOCC2)cc(-c2ccccc2)n1CC(=O)O [I-13, 2-(2-methyl-3-(2-(morpholinosulfonyl)benzyl)-5-phenyl-1H-pyrrol-1-yl)acetic acid]	5 to 100 nM	–
Cc1c(Cc2ccccc2S(=O)(=O)c2ccccc2)cc(-c2ccc(C(F)(F)F)cc2)n1CC(=O)O [I-25, 2-(2-methyl-3-(2-(phenylsulfonyl)benzyl)-5-(4-(trifluoromethyl)phenyl)-1H-pyrrol-1-yl)acetic acid]	> 500 nM	5 to 100 nM
Cc1c(Cc2ccccc2S(=O)(=O)c2ccccc2)cc(-c2cccnc2)n1CC(=O)O [I-2, 2-(2-methyl-3-(2-(phenylsulfonyl)benzyl)-5-(pyridin-3-yl)-1H-pyrrol-1-yl)acetic acid]	5 to 100 nM	–
Cc1c(Cc2ccccc2S(=O)(=O)c2ccccc2)cc(-c2ccc(F)cc2)n1CC(=O)O [I-15, 2-(5-(4-fluorophenyl)-2-methyl-3-(2-(phenylsulfonyl)benzyl)-1H-pyrrol-1-yl)acetic acid]	100 to 500 nM	–
Cc1c(Cc2ccccc2S(=O)(=O)N2CCCC2)cc(-c2ccccc2)n1CC(=O)O [I-16]	100 to 500 nM	–
Cc1c(Cc2ccccc2S(=O)(=O)N2CCOCC2)c(C#N)c(-c2ccccc2)n1CC(=O)O [I-3, 2-(3-cyano-5-methyl-4-(2-(morpholinosulfonyl)benzyl)-2-phenyl-1H-pyrrol-1-yl)acetic acid]	5 to 100 nM	–
Cc1cc(Cc2ccccc2S(=O)(=O)N2CCCC2)c(C)n1CC(=O)O [I-9, 2-(2,5-dimethyl-3-(2-(pyrrolidin-1-ylsulfonyl)benzyl)-1H-pyrrol-1-yl)acetic acid]	5 to 100 nM	5 to 100 nM
Cc1c(Cc2ccccc2S(=O)(=O)c2ccccc2)c(C#N)c(-c2ccccc2)n1CC(=O)O [I-4, 2-(3-cyano-5-methyl-2-phenyl-4-(2-(phenylsulfonyl)benzyl)-1H-pyrrol-1-yl)acetic acid]	5 to 100 nM	< 5 nM
Cc1c(Cc2ccc(S(=O)(=O)N3CCCC3)cc2)c(C)n(CC(=O)O)c1CCO [I-20, 2-(2-(2-hydroxyethyl)-3,5-dimethyl-4-(4-(pyrrolidin-1-ylsulfonyl)benzyl)-1H-pyrrol-1-yl)acetic acid]	–	> 500 nM
Cc1c(C#N)c(Cc2ccccc2S(=O)(=O)c2ccccc2)c(C)n1CC(=O)O [I-23, 2-(3-cyano-2,5-dimethyl-4-(2-(phenylsulfonyl)benzyl)-1H-pyrrol-1-yl)acetic acid]	5 to 100 nM	< 5 nM
Cc1c(Cc2ccccc2S(=O)(=O)c2ccccc2)c(-c2ccccc2)c(-c2ccccc2)n1CC(=O)O [I-12, 2-(2-methyl-4,5-diphenyl-3-(2-(phenylsulfonyl)benzyl)-1H-pyrrol-1-yl)acetic acid]	5 to 100 nM	–
Cc1c(Cc2ccccc2S(=O)(=O)c2ccccc2)cc(-c2ccncc2)n1CC(=O)O [I-1, 2-(2-methyl-3-(2-(phenylsulfonyl)benzyl)-5-(pyridin-4-yl)-1H-pyrrol-1-yl)acetic acid]	< 5 nM	–
Cc1c(Cc2ccccc2S(=O)(=O)c2ccccc2)cc(-c2cccc(F)c2)n1CC(=O)O [I-8, 2-(5-(3-fluorophenyl)-2-methyl-3-(2-(phenylsulfonyl)benzyl)-1H-pyrrol-1-yl)acetic acid]	5 to 100 nM	–
Cc1c(Cc2ccccc2S(=O)(=O)c2ccccc2)cc(-c2ccccc2C(F)(F)F)n1CC(=O)O [I-27, 2-(2-methyl-3-(2-(phenylsulfonyl)benzyl)-5-(2-(trifluoromethyl)phenyl)-1H-pyrrol-1-yl)acetic acid]	> 500 nM	–
Cc1c(Cc2ccccc2S(=O)(=O)N2CCCC2)c(C#N)c(C2CCCCC2)n1CC(=O)O [I-14, 2-(3-cyano-2-cyclohexyl-5-methyl-4-(2-(pyrrolidin-1-ylsulfonyl)benzyl)-1H-pyrrol-1-yl)acetic acid]	100 to 500 nM	–
Cc1c(Cc2ccccc2S(=O)(=O)c2ccccc2)cc(-c2ccccn2)n1CC(=O)O [I-17, 2-(2-methyl-3-(2-(phenylsulfonyl)benzyl)-5-(pyridin-2-yl)-1H-pyrrol-1-yl)acetic acid]	100 to 500 nM	–

More lines, now with the values ahead:

IC50 (CRTH2 [1])	IC50 (CRTH2 [2])	Compound
5 to 100 nM	< 5 nM	Cc1c(Cc2ccccc2S(=O)(=O)N2CCCC2)c(C(=O)c2ccccc2)c(C)n1CC(=O)O [I-55, 2-(3-benzoyl-2,5-dimethyl-4-(2-(pyrrolidin-1-ylsulfonyl)benzyl)-1H-pyrrol-1-yl)acetic acid]
> 500 nM	–	Cc1c(C#N)c(CC(=O)O)c(C)n1Cc1ccccc1S(=O)(=O)N1CCCC1 [I-73, 2-(4-cyano-2,5-dimethyl-1-(2-(pyrrolidin-1-ylsulfonyl)benzyl)-1H-pyrrol-3-yl)acetic acid]
> 500 nM	> 500 nM	CCOC(=O)Cn1c(C)c(C#N)c(Cc2ccccc2S(=O)(=O)N2CCCC2)c1C [I-63, Ethyl 2-(3-cyano-2,5-dimethyl-4-(2-(pyrrolidin-1-ylsulfonyl)benzyl)-1H-pyrrol-1-yl)acetate]
5 to 100 nM	< 5 nM	Cc1c(Cc2ccccc2S(=O)(=O)N2CCCC2)c(-c2ccccc2)c(C)n1CC(=O)O [I-57, 2-(2,5-dimethyl-3-phenyl-4-(2-(pyrrolidin-1-ylsulfonyl)benzyl)-1H-pyrrol-1-yl)acetic acid]
5 to 100 nM	< 5 nM	CC(=O)c1c(Cc2ccccc2S(=O)(=O)c2ccccc2)c(C)n(CC(=O)O)c1C [I-52, 2-(3-acetyl-2,5-dimethyl-4-(2-(phenylsulfonyl)benzyl)-1H-pyrrol-1-yl)acetic acid]
5 to 100 nM	5 to 100 nM	Cc1c(C#N)c(Cc2ccccc2S(=O)(=O)N2CCOCC2)c(C)n1CC(=O)O [I-46, 2-(3-cyano-2,5-dimethyl-4-(2-(morpholinosulfonyl)benzyl)-1H-pyrrol-1-yl)acetic acid]
5 to 100 nM	< 5 nM	Cc1cc(Sc2ccccc2S(=O)(=O)N2CCOCC2)c(C)n1CC(=O)O [I-29, 2-(2,5-dimethyl-3-(2-(morpholinosulfonyl)phenylthio)-1H-pyrrol-1-yl)acetic acid]
5 to 100 nM	< 5 nM	Cc1c(C#N)c(Cc2ccccc2S(=O)(=O)N2CCCC2)c(C)n1CC(=O)O [I-32, 2-(3-cyano-2,5-dimethyl-4-(2-(pyrrolidin-1-ylsulfonyl)benzyl)-1H-pyrrol-1-yl)acetic acid]
100 to 500 nM	> 500 nM	Cc1cc(C(=O)c2ccccc2S(=O)(=O)N2CCOCC2)c(C)n1CC(=O)O [I-56, 2-(2,5-dimethyl-3-(2-(morpholinosulfonyl)benzoyl)-1H-pyrrol-1-yl)acetic acid]
> 500 nM	100 to 500 nM	Cc1nn(CC(=O)O)c(C)c1Cc1ccccc1S(=O)(=O)N1CCCC1 [I-72, 2-(3,5-dimethyl-4-(2-(pyrrolidin-1-ylsulfonyl)benzyl)-1H-pyrazol-1-yl)acetic acid]
